≈ marks a conversion by molar mass, not a printed value.
Columns and labels:
Cryptococcus neoformans = assay: Antifungal activity against Cryptococcus neoformans H99 assessed as inhibition of fungal growth incubated for 24 hrs by agar diffusion method; type: functional
Saccharomyces cerevisiae = assay: Antifungal activity against Saccharomyces cerevisiae BY4741 assessed as inhibition of fungal growth incubated for 24 hrs by agar diffusion method; type: functional
HeLa = assay: Cytotoxicity against human HeLa cells assessed as reduction in cell viability incubated for 48 hrs by CCK-8 assay; type: functional, cell-based
A549 = assay: Cytotoxicity against human A549 cells assessed as reduction in cell viability incubated for 48 hrs by CCK-8 assay; type: functional, cell-based; details: A549, 48 h
MCF7 = assay: Cytotoxicity against human MCF7 cells assessed as reduction in cell viability incubated for 48 hrs by CCK-8 assay; type: functional, cell-based; details: MCF7, 48 h

Row | Compound | MIC (Cryptococcus neoformans) [µg/mL] | MIC (Saccharomyces cerevisiae) [µg/mL] | IC50 (HeLa) [nM] | IC50 (A549) [nM] | IC50 (MCF7) [nM]
1 | C[C@@H]1C/C(=C\CC2CC(=O)NC(=O)C2)C(=O)[C@@H](C)C1 | > 32 | > 32 | > 20000 | > 20000 | > 20000
2 | Cc1cc(C)c(O[C@@H]2O[C@@H](C)[C@H](O)[C@@H](O)[C@H]2O)c(C(=O)CC2CC(=O)NC(=O)C2)c1 | > 32 | > 32 | > 20000 | > 20000 | > 20000
3 | C[C@@H]1C[C@@H]([C@@H](CC2CC(=O)NC(=O)C2)O[C@H]2O[C@H](CO)[C@@H](O)[C@H](O)[C@H]2O)C(=O)[C@@H](C)C1 | > 32 | > 32 | > 20000 | > 20000 | > 20000
4 | C[C@@H]1C[C@@H]([C@H](O)CC2CC(=O)NC(=O)C2)C(=O)[C@@H](C)C1 [CYCLOHEXIMIDE] | 2 (≈ 7.11 µM) | 2 (≈ 7.11 µM) | 1000 | 670 | 530
5 | COc1cccc2c1C(=O)c1c(O)c3c(c(O)c1C2=O)C[C@@](O)(C(=O)CO)C[C@@H]3O[C@H]1C[C@H](N)[C@H](O)[C@H](C)O1 [DOXORUBICIN] | – | – | 90 | 600 | 970
